Measured values taken from US10966426B2, “Herbicidal compositions comprising phenylpyrimidines” (BASF SE, priority 2016, dated 2021).
“And” between values parts separate entries of the source, which are not always exact repeats. Equal entries are not always repeated.

What was measured:
Type in all cases: in vivo
[1] = system: Echinocloa crus-galli; experiment: greenhouse post-emergence treatment, ECHCG; conditions: ECHCG
In short: (§1)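 Visual herbicidal effect (0–100) recorded over a 2 to 4 week test period after foliar treatment at plant heights of 3 to 15 cm. Expected combination effects derived by the Colby formula from single-component effects X and Y.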

[2] = system: Lolium multiflorum; experiment: greenhouse post-emergence treatment, LOLMU; conditions: LOLMU
In short: (§2)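 Scoring ran on a 0-100 scale, 100 meaning no emergence or destroyed above-ground parts, over a 2-4 week period; Colby formula E=X+Y−(X·Y/100) gave expected mixture effects. Species grew separately in loamy sand (about 3.0% humus) at 10-25° C or 20-35° C, with water as solvent.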

[3] = system: Poa annua; experiment: greenhouse post-emergence treatment, POAAN; conditions: POAAN
In short: (§3)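 Greenhouse; post-emergence spray at 3–15 cm; aqueous EC formulation; 2–4 weeks; 0–100 visual score.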

[4] = system: Polygonum convolvulus; experiment: greenhouse post-emergence treatment, POLCO; conditions: POLCO, solo Ex. 5 62.5 gai/ha
In short: as §1

[5] = system: Brachiaria decumbens; experiment: greenhouse post-emergence treatment, BRADC; conditions: BRADC
In short: as §3

[6] = system: Bromus sterilis; experiment: greenhouse post-emergence treatment, BROST
In short: as §2

[7] = system: Alopecurus myosuroides; experiment: greenhouse post-emergence treatment, ALOMY; conditions: ALOMY
In short: as §2

[8] = Table X12, 20 DAT, solo Ex. 5 125 gai/ha
[9] = solo Ex. 5 15 gai/ha, 20 DAT, 2nd series of rows
[10] = solo Ex. 5 62.5 gai/ha, 20 DAT, 2nd series of rows
[11] = solo Ex. 5 250 gai/ha, 20 DAT, 2nd series of rows
[12] = solo Ex. 5 500 gai/ha, 20 DAT, 2nd series of rows
[13] = Table X8, 20 DAT, solo Ex. 5 125 gai/ha

`O=C(O)c1nc(C2CC2)ncc1-c1ccccc1Cl` [Ex. 5] was tested, and the “% activity, solo application” value ([1]; 62.5 gai/ha, 20 DAT, Table X3) was 65%, the “% activity” value ([1]; solo Ex. 5 125 gai/ha, 21 DAT) was 65% and the “% activity” value ([1]; solo Ex. 5 250 gai/ha, 21 DAT) was 65%. For the same molecule, the “% activity” value [1, 8] was 65%, the “% activity, solo application” value ([2]; 125 gai/ha, 20 DAT, Table X4) was 80% and the “% activity, solo application” value ([2]; 125 gai/ha, 20 DAT, Table X5) was 80%. The “% activity, solo application” value ([2]; 250 gai/ha, 20 DAT, Table X4) was 80%, the “% activity” value ([2]; 21 DAT, solo Ex. 5 125 gai/ha) was 85% and the “% activity” value ([2]; 21 DAT, solo Ex. 5 250 gai/ha) was 85%. For the same molecule, the “% activity” value [2, 9] was 85%, the “% activity” value ([2]; solo Ex. 5 62.5 gai/ha, 20 DAT) was 80% and the “% activity” value [2, 10] was 80%. For the same molecule, the “% activity” value ([2]; solo Ex. 5 125 gai/ha, 20 DAT) was 80% and 83%, the “% activity” value ([2]; solo Ex. 5 250 gai/ha, 20 DAT) was 85% and the “% activity” value [2, 11] was 85%. The “% activity” value ([2]; solo Ex. 5 250 gai/ha, 21 DAT) was 80%, the “% activity” value ([2]; solo Ex. 5 500 gai/ha, 20 DAT) was 85% and the “% activity” value [2, 12] was 85%. For the same molecule, the “% activity” value [2, 13] was 85%, the “% activity” value [2, 8] was 85% and the “% activity” value ([2]; solo, 62.5 gai/ha, 20 DAT) was 75%. For the same molecule, the “% activity” value ([2]; solo, 125 gai/ha, 20 DAT) was 80% and 50%, the “% activity” value ([2]; solo, 250 gai/ha, 20 DAT) was 80% and the “% activity” value ([3]; solo Ex. 5 62.5 gai/ha, 20 DAT) was 80%. The “% activity” value ([3]; solo Ex. 5 125 gai/ha, 20 DAT) was 80%, the “% activity” value ([3]; solo Ex. 5 125 gai/ha, 21 DAT) was 85% and the “% activity” value ([3]; solo Ex. 5 250 gai/ha, 21 DAT) was 85%. For the same molecule, the “% activity” value [3, 13] was 90%, the “% activity” value ([3]; Table X8, 20 DAT, solo Ex. 5 250 gai/ha) was 90% and the “% activity” value ([3]; solo, 62.5 gai/ha, 20 DAT) was 85%. For the same molecule, the “% activity” value ([3]; solo, 125 gai/ha, 20 DAT) was 85%, the “% activity” value ([3]; solo, 250 gai/ha, 20 DAT) was 85% and the “% activity” value ([4]; 20 DAT) was 60%. The “% activity” value ([4]; 21 DAT) was 90%, the “% activity, solo application” value ([5]; 125 gai/ha, 20 DAT, Table X5) was 50% and the “% activity, solo application” value ([5]; 125 gai/ha, 20 DAT, Table X7) was 65%. The “% activity, solo application” value ([5]; 250 gai/ha, 20 DAT, Table X3) was 60%, the “% activity” value ([5]; 20 DAT, solo Ex. 5 62.5 gai/ha) was 35% and the “% activity” value ([5]; 20 DAT, solo Ex. 5 125 gai/ha) was 40%. For the same molecule, the “% activity” value ([5]; 20 DAT, solo Ex. 5 125 gai/ha (Table X66)) was 40%, the “% activity” value ([5]; 20 DAT, solo Ex. 5 250 gai/ha) was 60% and the “% activity” value ([5]; 21 DAT, solo Ex. 5 125 gai/ha) was 60%. For the same molecule, the “% activity” value ([5]; 21 DAT, solo Ex. 5 250 gai/ha) was 70%, the “% activity” value ([5]; solo Ex. 5 62.5 gai/ha, 20 DAT) was 30% and 45% and the “% activity” value ([5]; solo Ex. 5 125 gai/ha, 20 DAT) was 50%. The “% activity” value ([5]; solo Ex. 5 250 gai/ha, 20 DAT) was 60%, the “% activity” value ([5]; solo, 62.5 gai/ha, 20 DAT) was 45% and the “% activity” value ([5]; solo, 250 gai/ha, 20 DAT) was 60%. The “% activity, solo application” value ([6]; 250 gai/ha, 20 DAT, BROST, Table X3) was 80%, the “% activity” value ([6]; BROST, 20 DAT, solo Ex. 5 62.5 gai/ha) was 35% and the “% activity” value ([6]; BROST, 20 DAT, solo Ex. 5 250 gai/ha) was 80%. The “% activity” value ([6]; BROST, solo Ex. 5 62.5 gai/ha, 20 DAT) was 30% and 53%, the “% activity” value ([6]; BROST, solo Ex. 5 125 gai/ha, 20 DAT) was 65% and 73% and the “% activity” value ([6]; BROST, solo Ex. 5 250 gai/ha, 20 DAT) was 70% and 85%. The “% activity” value ([6]; BROST, solo Ex. 5 500 gai/ha, 20 DAT) was 90%, the “% activity” value ([6]; solo, BROST, 125 gai/ha, 20 DAT) was 65% and the “% activity” value ([6]; solo, BROST, 250 gai/ha, 20 DAT) was 70% and 80%. For the same molecule, the “% activity, solo application” value ([7]; 62.5 gai/ha, 20 DAT, Table X3) was 75%, the “% activity, solo application” value ([7]; 125 gai/ha, 20 DAT, Table X7) was 80% and the “% activity, solo application” value ([7]; 250 gai/ha, 20 DAT, Table X5) was 85%. For the same molecule, the “% activity, solo application” value ([7]; 250 gai/ha, 20 DAT, Table X7) was 75%, the “% activity” value [7, 9] was 80% and the “% activity” value ([7]; solo Ex. 5 62.5 gai/ha, 20 DAT) was 70% and 68%. For the same molecule, the “% activity” value [7, 10] was 70%, the “% activity” value ([7]; solo Ex. 5 125 gai/ha, 20 DAT) was 70% and the “% activity” value ([7]; solo Ex. 5 250 gai/ha, 20 DAT) was 73%. The “% activity” value [7, 11] was 80%, the “% activity” value ([7]; solo Ex. 5 250 gai/ha, 21 DAT) was 80% and the “% activity” value ([7]; solo Ex. 5 500 gai/ha, 20 DAT) was 78%. The “% activity” value [7, 12] was 80%, the “% activity” value ([7]; Table X12, 20 DAT, solo Ex. 5 31.25 gai/ha) was 70% and the “% activity” value ([7]; Table X12, 20 DAT, solo Ex. 5 62.5 gai/ha) was 70%. The “% activity” value [7, 8] was 80%, the “% activity” value ([7]; solo, 62.5 gai/ha, 20 DAT) was 75% and the “% activity” value ([7]; solo, 125 gai/ha, 20 DAT) was 80% and 75%. The “% activity” value ([7]; solo, 250 gai/ha, 20 DAT) was 80%.
